Earlier results, collected in patent publication US20230200430A1, “ORAL PRODUCTS WITH HIGH-DENSITY LOAD” (NICOVENTURES TRADING LIMITED, priority 2021, published 2023).

Settings: qualitative statement

Row | solubility in water / aqueous environment | Compound
1 | water soluble | CC(/C=C/C=C(C)/C=C/C(=O)O)=C\C=C\C=C(C)\C=C\C=C(C)\C=C\C(=O)O (stereo in doubt) [norbixin, (2E,4E,6E,8E,10E,12E,14E,16E,18E)-4,8,13,17-tetramethylicosa-2,4,6,8,10,12,14,16,18-nonaenedioic acid]
2 | insoluble in water | COC(=O)/C=C/C(C)=C\C=C\C(C)=C\C=C\C=C(C)\C=C\C=C(C)\C=C\C(=O)O [Bixin]

Row | Compound | solubility in water / aqueous environment
3 | C=C(C)[C@@H]1CCC(C)=C[C@H]1c1c(O)cc(CCCCC)cc1O [CBD, cannabidiol, reference compound] | insoluble in an aqueous environment
